These results are taken from patent US7595401B2, “Therapeutic compounds and their use in cancer” (Myriad Pharmaceuticals, Inc., priority 2006, dated 2009).

In one experiment the test system is purified human Hsp90. Put plainly: Binding Assay: fluorescence polarization with BODIPY-labeled geldanamycin. The settings on record: 5 μM compound, BODIPY-GM 10 nM, Hsp90 30 nM. The method, boiled down:
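Compounds in 2% DMSO final compete with 10 nM BODIPY-GM for 30 nM purified human Hsp90, incubated overnight at room temperature in pH 7.3 HEPES buffer containing Na2MoO4 and DTT. Polarization (mP, ex/em 485/530) normalized to DMSO gives percent inhibition; autofluorescence-confounded data excluded.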
For `Nc1ncn(Cc2ccccc2)c2nc(Sc3cc4c(cc3Br)OCO4)nc1-2` [Example 265, 3-Benzyl-8-[(6-bromo-1,3-benzodioxol-5-yl)thio]-3H-purin-6-amine], the % Inhibition (as a rule, how much of the control response was suppressed) at 5 μM Compound Concentration turned out to be 20%.

As for `Nc1ncn(CCc2ccccc2)c2nc(Sc3ccc(NC=O)c(O)c3)nc1-2` [Example 268, N-(4-{[6-Amino-3-(2-phenylethyl)-3H-purin-8-yl]thio}-2-hydroxyphenyl)formamide], the “% Inhibition at 5 μM Compound Concentration” value (shortened to “% Inhibition”) is on record as 7.0%.

With `Nc1ncn(CCn2cnc3ccccc3c2=O)c2nc(Sc3cc4c(cc3Br)OCO4)nc1-2` [Example 270, 3-(2-{6-Amino-8-[(6-bromo-1,3-benzodioxol-5-yl)thio]-3H-purin-3-yl}ethyl)quinazolin-4(3 H)-one], the “% Inhibition” value turned out to be 7.0%.

On to `COc1ccc(OC)c(Sc2nc3c(N)ncn(CCn4cnc5ccccc5c4=O)c-3n2)c1` [Example 272, 3-(2-{6-Amino-8-[(2,5-dimethoxyphenyl)thio]-3H-purin-3-yl}ethyl)quinazolin-4(3 H)-one], for which the “% Inhibition” value is recorded as 16%.

In the case of `CC(C)(C)NS(=O)(=O)c1ccc(CCn2cnc(N)c3nc(Sc4cc5c(cc4Br)OCO5)nc2-3)cc1` [Example 274, 4-(2-{6-Amino-8-[(6-bromo-1,3-benzodioxol-5-yl)thio]-3H-purin-3-yl}ethyl) N-(tert-butyl)benzenesulfonamide], the “% Inhibition” value is on record as 0.0%.

With `COc1ccc(OC)c(Sc2nc3c(N)ncn(CCc4ccc(S(=O)(=O)NC(C)(C)C)cc4)c-3n2)c1` [Example 276, 4-(2-{6-Amino-8-[(2,5-dimethoxyphenyl)thio]-3H-purin-3-yl}ethyl)-N-(tert-butyl)benzenesulfonamide], the “% Inhibition” value was determined as 0.0%.

Turning to `CCCCNC(=O)Nc1ccc(CCn2cnc(N)c3nc(Sc4cc(OC)ccc4OC)nc2-3)cc1` [Example 278, N-[4-(2-{6-Amino-8-[(2,5-dimethoxyphenyl)thio]-3H-purin-3-yl}ethyl)phenyl]-N′-butylurea], the “% Inhibition” value turned out to be 1.0%.

Consider `COc1ccc(OC)c(Sc2nc3c(N)ncn(CC4(c5ccc(Cl)cc5)CC4)c-3n2)c1` [Example 280, 3-{[1-(4-Chlorophenyl)cyclopropyl]methyl}-8-[(2,5-dimethoxyphenyl)thio]-3H-purin-6-amine], for which the “% Inhibition” value worked out at 0.0%.

With `Nc1ncn(CCc2ccccc2)c2nc(Sc3ccc4ncoc4c3)nc1-2` [Example 284, 8-(1,3-Benzoxazol-6-ylthio)-3-(2-phenylethyl)-3H-purin-6-amine], the “% Inhibition” value was 3.0%.

The experiment is the same for the next values; noted with them: BODIPY-GM 10 nM, Hsp90 30 nM.
For the molecule `COc1cc(I)c(Sc2nc3c(N)ncnc3n2CCc2ccccc2Cl)cc1OC` [Example 261, 9-[2-(2-Chlorophenyl)ethyl]-8-[(2-iodo-4,5-dimethoxyphenyl)thio]-9H-purin-6-amine], the 50% inhibitory concentration (IC50) (commonly the midpoint of a concentration-inhibition curve) was over 25000 nM.

As to `Nc1ncnc2c1nc(Sc1cc(Cl)c(Cl)cc1Cl)n2CCc1ccccc1Cl` [Example 262, 9-[2-(2-Chlorophenyl)ethyl]-8-[(2,4,5-trichlorophenyl)thio]-9H-purin-6-amine], the IC50 is over 25000 nM.

Molecule `COc1ccc(OC)c(Sc2nc3c(N)ncnc3n2Cc2ccc(F)cc2)c1` [Example 266, 8-[(2,5-Dimethoxyphenyl)thio]-9-(4-fluorobenzyl)-9H-purin-6-amine] had an IC50 of 12000 nM.

`Nc1ncnc2c1nc(Sc1ccc(NC=O)c(O)c1)n2CCc1ccccc1` [Example 267, N-(4-{[6-Amino-9-(2-phenylethyl)-9H-purin-8-yl]thio}-2-hydroxyphenyl)formamide]: the half-maximal inhibitory concentration (IC50) was over 25000 nM.

The molecule `Nc1ncnc2c1nc(Sc1cc3c(cc1Br)OCO3)n2CCn1cnc2ccccc2c1=O` [Example 269, 3-(2-{6-Amino-8-[(6-bromo-1,3-benzodioxol-5-yl)thio]-9H-purin-9-yl}ethyl)quinazolin-4(3 H)-one] gave a half-maximal inhibitory concentration (IC50) of 5500 nM.

Regarding `COc1ccc(OC)c(Sc2nc3c(N)ncnc3n2CCn2cnc3ccccc3c2=O)c1` [Example 271, 3-(2-{6-Amino-8-[(2,5-dimethoxyphenyl)thio]-9H-purin-9-yl}ethyl)quinazolin-4(3 H)-one], the IC50 is over 25000 nM.

Take `CC(C)(C)NS(=O)(=O)c1ccc(CCn2c(Sc3cc4c(cc3Br)OCO4)nc3c(N)ncnc32)cc1` [Example 273, 4-(2-{6-Amino-8-[(6-bromo-1,3-benzodioxol-5-yl)thio]-9H-purin-9-yl}ethyl)-N-(tert-butyl)benzenesulfonamide]: the IC50 amounted to 1300 nM.

`COc1ccc(OC)c(Sc2nc3c(N)ncnc3n2CCc2ccc(S(=O)(=O)NC(C)(C)C)cc2)c1` [Example 275, 4-(2-{6-Amino-8-[(2,5-dimethoxyphenyl)thio]-9H-purin-9-yl}ethyl)-N-(tert-butyl)benzenesulfonamide] came in with a 50% inhibitory concentration (IC50) of over 3000 nM.

For the molecule `CCCCNC(=O)Nc1ccc(CCn2c(Sc3cc(OC)ccc3OC)nc3c(N)ncnc32)cc1` [Example 277, N-[4-(2-{6-Amino-8-[(2,5-dimethoxyphenyl)thio]-9H-purin-9-yl}ethyl)phenyl]-N′-butylurea], the IC50 is over 8000 nM.

For `COc1ccc(OC)c(Sc2nc3c(N)ncnc3n2CC2(c3ccc(Cl)cc3)CC2)c1` [Example 279, 9-{[1-(4-Chlorophenyl)cyclopropyl]methyl}-8-[(2,5-dimethoxyphenyl)thio]-9H-purin-6-amine], the concentration for half-maximal inhibition (IC50) was over 25000 nM.

For the molecule `CCCCNC(=O)Nc1ccc(CCn2c(Sc3cc4c(cc3Br)OCO4)nc3c(N)ncnc32)cc1` [Example 281, N-[4-(2-{6-Amino-8-[(6-bromo-1,3-benzodioxol-5-yl)thio]-9H-purin-9-yl}ethyl)phenyl]-N′-butylurea], the half-inhibitory concentration (IC50) worked out at 120 nM.

With `Nc1ccccc1CCn1c(Sc2cc3c(cc2Br)OCO3)nc2c(N)ncnc21` [Example 282, 9-[2-(2-Aminophenyl)ethyl]-8-[(6-bromo-1,3-benzodioxol-5-yl)thio]-9H-purin-6-amine], the 50% inhibitory concentration (IC50) was 55 nM.

With `Nc1ncnc2c1nc(Sc1ccc3ncoc3c1)n2CCc1ccccc1` [Example 283, 8-(1,3-Benzoxazol-6-ylthio)-9-(2-phenylethyl)-9H-purin-6-amine], the 50% inhibitory concentration (IC50) came out at 12000 nM.

Consider `CCC(Cn1c(Sc2cc(OC)ccc2OC)nc2c(N)ncnc21)c1ccccc1` (stereo not drawn) [Example 285, 8-[(2,5-Dimethoxyphenyl)thio]-9-(2-phenylbutyl)-9H-purin-6-amine], for which the half-inhibitory concentration (IC50) was 1300 nM.

In turn, `COc1cc(Sc2nc3c(N)ncnc3n2CCc2ccccc2)c(Cl)c(OC)c1OC` [Example 286, 8-[(2-Chloro-3,4,5-trimethoxyphenyl)thio]-9-(2-phenylethyl)-9H-purin-6-amine] displayed an IC50 of 3000 nM.

`COc1ccccc1CCn1c(Sc2cc3c(cc2Br)OCO3)nc2c(N)ncnc21` [Example 287, 8-[(6-Bromo-1,3-benzodioxol-5-yl)thio]-9-[2-(2-methoxyphenyl)ethyl]-9H-purin-6-amine] returned an IC50 of 60 nM.

Take `COc1cccc(Sc2nc3c(N)ncn(CCc4ccccc4)c-3n2)c1` [Example 288, 8-[(3-Methoxyphenyl)thio]-3-(2-phenylethyl)-3H-purin-6-amine]: the half-inhibitory concentration (IC50) is 4000 nM.

The molecule `Nc1ncnc2c1nc(Sc1ccc3c(c1)OCO3)n2CCc1ccccc1Cl` [Example 289, 8-(1,3-Benzodioxol-5-ylthio)-9-[2-(2-chlorophenyl)ethyl]-9H-purin-6-amine] showed an IC50 of 1600 nM.
